Test results from ChEMBL document CHEMBL1124117, “Coupling products of amino acids to penicillin V and cephalothin: synthesis and susceptibility to carboxypeptidases and lysosomal enzymes” (J Med Chem, 1988).

Experiments:
[1] = Half-life of compound in the presence of lysosomal enzymes in the acetate buffer; type: ADME
[2] = Half-life of compound in acetate buffer (pH 4.5); type: ADME

half-life [1] [h] | half-life [2] [h] | Structure (SMILES)
7 | 7 | CC1(C)S[C@@H]2[C@H](NC(=O)COc3ccccc3)C(=O)N2[C@H]1C(=O)N[C@@H](Cc1ccc(O)cc1)C(=O)O
0.8 | 41 | CC(=O)OCC1=C(C(=O)NC(CC(C)C)C(=O)O)N2C(=O)[C@@H](NC(=O)Cc3cccs3)[C@H]2SC1 (stereo partly drawn)
1.1 | 29 | CC(=O)OCC1=C(C(=O)O)N2C(=O)[C@@H](NC(=O)Cc3cccs3)[C@H]2SC1 [CEPHALOTHIN]
14 | 17 | CC1(C)S[C@@H]2[C@H](NC(=O)COc3ccccc3)C(=O)N2[C@H]1C(=O)O [PENICILLIN V]
